Test results: patent publication US20260042764A1, “COMPOSITIONS AND METHODS FOR INHIBITION OF KRAS” (TheRas, Inc., priority 2022, published 2026)

Assays:
[1] = test system: SW620 cells (KRAS G12V); test: Cell-based pERK HTRF assay in SW620 cell (Biological Example 4); settings: Homo sapiens, SW-620, SW620 (KRAS G12V) cells, pERK HTRF
Method: A pERK assay (Perkin Elmer) was used to determine the effectiveness of compounds in disrupting KRAS G12V protein/effector signaling in cells.
On Day 1, cells (SW620) were seeded into 96-well plates at 3×10^4 cells/well in 80 μL complete growth media (RPMI, 10% FBS).
On Day 2, cells were treated with compounds at 0.25% DMSO. The source plate was created with compounds diluted in media at 5-fold the final assay concentration. The compounds were run in a 9-point concentration curve starting at 1 μM, with a half-log dilution between concentrations. Twenty μL was transferred onto the cell plates (final volume in wells was 100 μL). Plates were harvested after 4 h incubation by aspirating media and adding kit-supplied 1x supplemented lysis buffer to all wells (50 μL per well). Plates were then placed on a plate shaker and incubated at 850 rpm for an additional 30 min.
Antibody mixture solution was prepared by diluting aliquoted d2 and Eu Cryptate antibodies 1:20 in kit supplied detection buffer and mixing the diluted antibodies solutions (1:1 v:v).
Samples were homogenized by pipetting up and down and then transferred (16 μL of cell lysates) from the 96-well cell culture plate to two wells of the HTRF 384-well detection plate containing the antibody solution. Plates were centrifuged (524 g for Imin) and allowed to incubate between 4 and 24 h at room temperature. […] Plates were centrifuged again (524 g for 1 min), then analyzed on the En Vision plate reader using the following settings: Excitation 320 nm, Bandwidth 75 nm; Emission 615 nm, Bandwidth 85 nm; Gain 100%; Flashes 100; Lag 60 μs.

[2] = molecular target: T1, Avi-KRAS WT (1-169) GppNHp/RAF1 RBD-3xFLAG (52-151) (Homo sapiens, UniProt P01116); test: Raf1-KRAS WT-GppNHP disruption HTRF assay (Biological Example 1); type: binding
T1 construct: Avi-KRAS WT (1-169)
Outline: (§1)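 First, protein mix in Tris pH 7.5 buffer with NaCl, MgCl2, BSA, Tween and 10% DMSO is incubated 1 h at room temperature. Next, reagent mix is added and incubated a further 1 h at room temperature. Finally, HTRF is read and activity normalized to DMSO.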

[3] = test system: GP2d cells (KRAS G12D); test: Cell-based pERK HTRF assay in GP2d cell (Biological Example 2); settings: GP2d, GP2d (KRAS G12D) cells, pERK HTRF
Outline: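 Phospho-ERK is measured by HTRF following a 60 min compound exposure at 0.25% DMSO, with a 9-point half-log curve topping at 1 μM or 100 nM.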

[4] = molecular target: T2, Avi-KRAS G12D (1-169) GppNHp/RAF1 RBD-3xFLAG (52-151) (Homo sapiens, UniProt P01116, G12D); test: Raf1-KRAS G12D-GppNHP disruption HTRF assay (Biological Example 1); type: binding
T2 construct: Avi-KRAS G12D (1-169)
Outline: as §1

[5] = molecular target: T3, Avi-KRAS G12V (1-169) GppNHp/RAF1 RBD-3xFLAG (52-151) (Homo sapiens, UniProt P01116, G12V); test: Raf1-KRAS G12V-GppNHP disruption HTRF assay (Biological Example 1); type: binding
T3 construct: Avi-KRAS G12V (1-169)
Outline: as §1

[6] = molecular target: T4, Avi-KRAS G12R (1-169) GppNHp/RAF1 RBD-3xFLAG (52-151) (Homo sapiens, UniProt P01116, G12R); test: Raf1-KRAS G12R-GppNHP disruption HTRF assay (Biological Example 1); type: binding
T4 construct: Avi-KRAS G12R (1-169)
Outline: as §1

[7] = KRAS WT, GppNHp-loaded, class symbols
[8] = KRAS G12D, GppNHp-loaded, class symbols
[9] = KRAS G12V, GppNHp-loaded, class symbols
[10] = KRAS G12R, GppNHp-loaded, class symbols
[11] = KRAS WT, GppNHp-loaded, Table 11
[12] = KRAS G12D, GppNHp-loaded, Table 11
[13] = KRAS G12V, GppNHp-loaded, Table 11
[14] = KRAS G12R, GppNHp-loaded, Table 11

T1 sequence (P01116 1-169 isoform P01116-2): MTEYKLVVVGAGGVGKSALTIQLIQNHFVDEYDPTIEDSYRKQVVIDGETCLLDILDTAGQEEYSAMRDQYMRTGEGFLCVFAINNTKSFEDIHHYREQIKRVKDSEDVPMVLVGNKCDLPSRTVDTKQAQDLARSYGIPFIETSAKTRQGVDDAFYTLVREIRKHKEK
T3 sequence (P01116 1-169 isoform P01116-2 G12V): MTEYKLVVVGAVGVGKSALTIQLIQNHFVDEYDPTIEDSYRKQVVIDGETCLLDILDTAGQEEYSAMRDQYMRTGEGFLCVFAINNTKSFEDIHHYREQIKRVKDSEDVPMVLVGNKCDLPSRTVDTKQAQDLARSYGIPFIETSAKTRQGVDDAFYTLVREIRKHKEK
T2 sequence (P01116 1-169 isoform P01116-2 G12D): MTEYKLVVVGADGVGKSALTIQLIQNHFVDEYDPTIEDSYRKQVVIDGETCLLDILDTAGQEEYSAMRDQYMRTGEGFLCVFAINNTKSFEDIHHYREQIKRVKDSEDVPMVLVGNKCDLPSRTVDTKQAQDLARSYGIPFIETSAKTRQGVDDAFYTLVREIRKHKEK
T4 sequence (P01116 1-169 isoform P01116-2 G12R): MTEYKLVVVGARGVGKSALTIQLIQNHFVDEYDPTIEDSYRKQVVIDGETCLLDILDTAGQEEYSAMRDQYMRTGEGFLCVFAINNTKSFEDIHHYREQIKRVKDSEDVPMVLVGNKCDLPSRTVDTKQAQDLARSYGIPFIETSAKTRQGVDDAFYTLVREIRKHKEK

Structure (SMILES) | IC50 ([1]; class symbols) | IC50 [2, 7] | IC50 ([3]; class symbols) | IC50 [4, 8] | IC50 [5, 9] | IC50 [6, 10] | IC50 [1] | IC50 ([2]; KRAS WT-GppNHp/RAF1 RBD HTRF) | IC50 [3] | IC50 ([4]; KRAS G12D-GppNHp/RAF1 RBD HTRF) | IC50 ([5]; KRAS G12V-GppNHp/RAF1 RBD HTRF) | IC50 ([6]; KRAS G12R-GppNHp/RAF1 RBD HTRF) | IC50 [2, 11] | IC50 [4, 12] | IC50 [5, 13] | IC50 [6, 14]
CCN(CC)C(=O)N1CCC(N(CC)c2nc(OCC34CCCN3CC(F)C4)nc3c(F)c(-c4ccc(F)c5sc(N)c(C#N)c45)c(C(F)(F)F)cc23)C1 (centres unmarked) [Compound 572] | < 100 nM | < 100 nM | < 100 nM | < 100 nM | 100 to 1000 nM | < 100 nM |  |  |  |  |  |  |  |  |  | 
CN(c1nc(OC[C@@]23CCCN2C[C@H](F)C3)nc2c(F)c(-c3ccc(F)c4sc(N)c(C#N)c34)c(C(F)(F)F)cc12)[C@H]1CCN(C(=O)[C@@H]2CC2(F)F)C1 (atropisomer, axis not shown) [Compound 785] | < 100 nM | 100 to 1000 nM | < 100 nM | < 100 nM | 100 to 1000 nM | 100 to 1000 nM |  |  |  |  |  |  |  |  |  | 
CCC(=O)N1C[C@@H](N(CC)c2nc(OC[C@@]34CCCN3C[C@H](F)C4)nc3c(F)c(-c4ccc(F)c5sc(N)c(C#N)c45)c(C(F)(F)F)cc23)C[C@@H]1C [Compound 464] |  |  |  |  |  |  | < 100 nM | 100 to 1000 nM | < 100 nM | < 100 nM | < 100 nM | < 100 nM |  |  |  | 
CCN(c1nc(OC[C@@]23CCCN2C[C@H](F)C3)nc2c(F)c(-c3ccc(F)c4sc(N)c(C#N)c34)c(C(F)(F)F)cc12)[C@@H]1CN(C(=O)C(C)C)C[C@@H]1F [Compound 475] |  |  |  |  |  |  | < 100 nM | 100 to 1000 nM | < 100 nM | 100 to 1000 nM | 100 to 1000 nM | 100 to 1000 nM |  |  |  | 
CN(c1nc(OC[C@@]23CCCN2C[C@H](F)C3)nc2c(F)c(-c3ccc(F)c4sc(N)c(C#N)c34)c(C(F)(F)F)cc12)[C@@H]1C[C@@H]2COC(=O)N2C1 [Compound 450] |  |  |  |  |  |  | < 100 nM | 100 to 1000 nM | < 100 nM | 100 to 1000 nM | 100 to 1000 nM | 100 to 1000 nM |  |  |  | 
CCN(c1nc(OC[C@@]23CCCN2C[C@H](F)C3)nc2c(F)c(-c3ccc(F)c4sc(N)c(C#N)c34)c(C(F)(F)F)cc12)[C@@H]1C[C@H](C)N(C(=O)COC)C1 (atropisomer, axis not shown) [Compound 589] | < 100 nM | 100 to 1000 nM | < 100 nM | 100 to 1000 nM | 100 to 1000 nM | 100 to 1000 nM |  |  |  |  |  |  |  |  |  | 
CCN(c1nc(OC[C@@]23CCCN2C[C@H](F)C3)nc2c(F)c(-c3ccc(F)c4sc(N)c(C#N)c34)c(C(F)(F)F)cc12)[C@H]1C[C@H](C)N(C(=O)C(C)C)C1 [Compound 471] |  |  |  |  |  |  | < 100 nM | 100 to 1000 nM | < 100 nM | 100 to 1000 nM | 100 to 1000 nM | 100 to 1000 nM |  |  |  | 
C[C@@H]1[C@H](N(C)c2nc(OC[C@@]34CCCN3C[C@H](F)C4)nc3c(F)c(-c4ccc(F)c5sc(N)c(C#N)c45)c(C(F)(F)F)cc23)CCN1C(=O)C(F)F [Compound 458] |  |  |  |  |  |  | < 100 nM | 100 to 1000 nM | < 100 nM | 100 to 1000 nM | 100 to 1000 nM | 100 to 1000 nM |  |  |  | 
N#Cc1c(N)sc2c(F)ccc(-c3c(C(F)(F)F)cc4c(N5CCS(=O)(=O)CC5)nc(OC[C@@]56CCCN5C[C@H](F)C6)nc4c3F)c12 [Compound 91] |  |  |  |  |  |  | < 100 nM |  | < 100 nM |  |  |  | 100 to 1000 nM | 100 to 1000 nM | 100 to 1000 nM | 100 to 1000 nM
CN(C[C@@H](F)CO)c1nc(OC[C@@]23CCCN2C[C@H](F)C3)nc2c(F)c(-c3ccc(F)c4sc(N)c(C#N)c34)c(C(F)(F)F)cc12 [Compound 218] |  |  |  |  |  |  | < 100 nM |  | < 100 nM |  |  |  | 100 to 1000 nM | 100 to 1000 nM | 100 to 1000 nM | 100 to 1000 nM
CC(C)C(=O)N1CC[C@@H](N(C)c2nc(OC[C@@]34CCCN3C[C@H](F)C4)nc3c(F)c(-c4ccc(F)c5sc(N)c(C#N)c45)c(C(F)(F)F)cc23)[C@@H]1C [Compound 300] |  |  |  |  |  |  | 100 to 1000 nM | 100 to 1000 nM | < 100 nM | 100 to 1000 nM | 1000 to 10000 nM | 1000 to 10000 nM |  |  |  | 
CCN(c1nc(OC[C@]23C[C@@H](F)CN2CC2(CC2)C3)nc2c(F)c(-c3ccc(F)c4sc(N)c(C#N)c34)c(C(F)(F)F)cc12)[C@H]1CCN(C(=O)C(C)C)C1 [Compound 566] | < 100 nM | 100 to 1000 nM | < 100 nM | 100 to 1000 nM | 100 to 1000 nM | 100 to 1000 nM |  |  |  |  |  |  |  |  |  | 
CC(=O)N1C[C@@H](F)[C@@H](N(C)c2nc(OC[C@@]34CCCN3C[C@H](F)C4)nc3c(F)c(-c4ccc(F)c5sc(N)c(C#N)c45)c(C(F)(F)F)cc23)C1 [Compound 237] |  |  |  |  |  |  | < 100 nM |  | < 100 nM |  |  |  | 100 to 1000 nM | 100 to 1000 nM | 100 to 1000 nM | 100 to 1000 nM
CCN(c1nc(OC[C@@]23CCCN2C[C@H](F)C3)nc2c(F)c(-c3ccc(F)c4sc(N)c(C#N)c34)c(C(F)(F)F)cc12)[C@@H]1CCN(C(C)=O)[C@@H]1C [Compound 407] |  |  |  |  |  |  | < 100 nM | 100 to 1000 nM |  | 100 to 1000 nM | 100 to 1000 nM | 100 to 1000 nM |  |  |  | 
CN(c1nc(OC[C@@]23CCCN2C[C@H](F)C3)nc2c(F)c(-c3ccc(F)c4sc(N)c(C#N)c34)c(C(F)(F)F)cc12)C1CC(F)C1 (some centres unmarked) [Compound 161] |  |  |  |  |  |  | < 100 nM |  |  |  |  |  | 100 to 1000 nM | 100 to 1000 nM | 100 to 1000 nM | 100 to 1000 nM
CN(C[C@@H](O)CO)c1nc(OC[C@@]23CCCN2C[C@H](F)C3)nc2c(F)c(-c3ccc(F)c4sc(N)c(C#N)c34)c(C(F)(F)F)cc12 [Compound 78] |  |  |  |  |  |  |  |  | < 100 nM |  |  |  | 100 to 1000 nM | < 100 nM | 100 to 1000 nM | 100 to 1000 nM
C[C@@H]1CN(c2nc(OC[C@@]34CCCN3C[C@H](F)C4)nc3c(F)c(-c4ccc(F)c5sc(N)c(C#N)c45)c(C(F)(F)F)cc23)C[C@@H](C)O1 [Compound 144] |  |  |  |  |  |  |  |  | < 100 nM |  |  |  | 100 to 1000 nM | 100 to 1000 nM | 1000 to 10000 nM | 100 to 1000 nM
CN(c1nc(OC[C@@]23CCCN2C[C@H](F)C3)nc2c(F)c(-c3ccc(F)c4sc(N)c(C#N)c34)c(C(F)(F)F)cc12)[C@@H]1C[C@H](O)[C@H]1CC#N [Compound 182] |  |  |  |  |  |  |  |  | < 100 nM |  |  |  | 100 to 1000 nM | 100 to 1000 nM | 100 to 1000 nM | 100 to 1000 nM
C[C@@H](O)CN(C)c1nc(OC[C@@]23CCCN2C[C@H](F)C3)nc2c(F)c(-c3ccc(F)c4sc(N)c(C#N)c34)c(C(F)(F)F)cc12 [Compound 71] |  |  |  |  |  |  |  |  | < 100 nM |  |  |  | 100 to 1000 nM | < 100 nM | 100 to 1000 nM | 100 to 1000 nM
CN(c1nc(OC[C@@]23CCCN2C[C@H](F)C3)nc2c(F)c(-c3ccc(F)c4sc(N)c(C#N)c34)c(C(F)(F)F)cc12)[C@H]1CCS(=O)(=O)C1 [Compound 94, 2-amino-4-(4-(((S)-1,1-dioxidotetrahydrothiophen-3-yl)(methyl)amino)-8-fluoro-2-(((2R,7aS)-2-fluorotetrahydro-1H-pyrrolizin-7a(5H)-yl)methoxy)-6-(trifluoromethyl)quinazolin-7-yl)-7-fluorobenzo[b]thiophene-3-carbonitrile] |  |  |  |  |  |  |  |  | < 100 nM |  |  |  | 100 to 1000 nM | 100 to 1000 nM | 100 to 1000 nM | 100 to 1000 nM
